In patent US20210155644A1, “CYCLOPENTENYL PURINE DERIVATIVE OR SALT THEREOF” (Fujifilm Corporation, priority 2018, published 2021) one finds EC50 data, which are given here for 10 compounds.

The subject of the experiment is adenovirus type 6 (ADV6). Nature of the experiment: Evaluation of anti-adenovirus activity: CRL-11516 cells infected with ADV6, anti-hexon staining, count of stained cells. It counts as cell-based. The conditions noted are these: CRL-11516 cells infected with ADV6, 48 hours culture, concentration reducing dark brown-stained cells by 50%, read-out: Anti-AdV activity EC50. On the procedure:
A system in which CRL-11516 cells (available from ATCC) were infected with adenovirus type 6 (hereinafter, referred to as ADV6) was constructed, and a test for evaluating the anti-adenovirus activity of the compound according to the embodiment of the present invention and the compound of Comparative Example was carried out using the system. The test for evaluating the anti-adenovirus activity was carried out according to the method described below.
CRL-11516 cells were added to a 96-well plate at a cell density of 1×10^4 cells/well and cultured at 37° C. for 24 hours. After the culture was completed, the cell culture liquid was removed, and a serial dilution (100 μL) of the compound according to the embodiment of the present invention or the compound of Comparative Example was added. ADV6 (corresponding to 50TCID50) was added thereto, followed by culturing at 37° C. for 48 hours.
After the culture was completed, the infected cells were stained using Adeno-X Rapid Titer Kit (manufactured by Takara Bio Inc.). 100% methanol was added thereto and the cells were fixed at −20° C. for 10 minutes. The plate was washed three times with phosphate buffered saline (hereinafter, referred to as PBS) and then Mouse Anti-Hexon Antibody was added thereto, followed by incubation at 37° C. for 1 hour. After the incubation was completed, the plate was washed three times with PBS, and Rat Anti-Mouse Antibody was added thereto, followed by incubation at 37° C. for 1 hour. After the incubation was completed, a mixed staining solution of Stable Peroxidase Buffer:DAB Substrate=10:1 was added thereto, followed by incubation at room temperature for 10 minutes for staining of the cells.
The number of dark brown-stained cells was counted under a microscope, and the concentration of the test drug that reduces the dark brown-stained cells by 50% was defined as EC50. EC50 values were calculated for the triplicate test results, and a mean value and a standard deviation thereof were determined.

The structures appear in SMILES notation. Like-named read-outs stand apart in the source and are kept apart here.

The EC50 is the concentration giving half of the maximal effect. With `CC(C)OC(=O)[C@H](C)N[P@](=O)(OC[C@@H]1C=C[C@H](n2cnc3c(OC4CCC4)nc(N)nc32)C1)Oc1ccccc1` [Example 2-2-36, Isopropyl ((S)-(((1S,4R)-4-(2-amino-6-cyclobutoxy-9H-purin-9-yl)cyclopent-2-en-1-yl)methoxy)(phenoxy)phosphoryl)-L-alaninate], the EC50 (Human mastadenovirus C, 48 h) is 100 to 1000 nM. Regarding `CC(C)OC(=O)[C@H](C)NP(=O)(OC[C@@H]1C=C[C@H](n2cnc3c(Cl)nc(N)nc32)C1)Oc1ccccc1` (stereo partly drawn) [Example 4-3-1, Isopropyl ((((1 S,4R)-4-(2-amino-6-chloro-9H-purin-9-yl)cyclopent-2-en-1-yl)methoxy)(phenoxy)phosphoryl)-L-alaninate], the EC50 lay within 10 to 100 nM.

For the compound `COCCOc1nc(N)nc2c1ncn2[C@H]1C=C[C@@H](CO[P@](=O)(N[C@@H](C)C(=O)OC(C)C)Oc2ccccc2)C1` [Example 2-2-21, isopropyl ((R)-(((1S,4R)-4-(2-amino-6-(2-methoxyethoxy)-9H-purin-9-yl)cyclopent-2-en-1-yl)methoxy) (phenoxy)phosphoryl)-L-alaninate], the EC50 (Human mastadenovirus C, 48 h) is 10 to 100 nM. Same read-out and setting: then `COC(=O)[C@H](C)NP(=O)(OC[C@@H]1C=C[C@H](n2cnc3c(Cl)nc(N)nc32)C1)Oc1ccccc1` (stereo partly drawn) [Example 2-2-7, Methyl ((((1S,4R)-4-(2-amino-6-chloro-9H-purin-9-yl)cyclopent-2-en-1-yl)methoxy) (phenoxy)phosphoryl)-L-alaninate], with 10 to 100 nM; and `COC(=O)C(C)(C)NP(=O)(OC[C@@H]1C=C[C@H](n2cnc3c(OC)nc(N)nc32)C1)Oc1ccc(Br)cc1` (stereo partly drawn) [Example 1-2-49, Methyl 2-(((((1S,4R)-4-(2-amino-6-methoxy-9H-purin-9-yl)cyclopent-2-en-1-yl)methoxy)(4-bromophenoxy)phosphoryl)amino)-2-methylpropanoate], with under 10 nM; and `CC(C)OC(=O)[C@H](C)NP(=O)(OC[C@@H]1C=C[C@H](n2cnc3c(Cl)nc(N)nc32)C1)Oc1ccc(Cl)cc1` (stereo partly drawn) [Example 1-2-70, isopropyl ((((1S,4R)-4-(2-amino-6-chloro-9H-purin-9-yl)cyclopent-2-en-1-yl)methoxy)(4-chlorophenoxy)phosphoryl)-L-alaninate], with 10 to 100 nM. As to `COc1nc(N)nc2c1ncn2[C@H]1C=C[C@@H](COP(=O)(N[C@@H](C)C(=O)OC(C)C)Oc2ccc3c(c2)OCO3)C1` (stereo partly drawn) [Example 6-2-21, isopropyl ((((1S,4R)-4-(2-amino-6-methoxy-9H-purin-9-yl)cyclopent-2-en-1-yl)methoxy)(benzo[d][1,3]dioxolo-5-yloxy)phosphoryl)-L-alaninate], the concentration for a half-maximal effect (EC50) lay within 10 to 100 nM.

`CC(C)OC(=O)[C@H](C)N[P@@](=O)(OC[C@@H]1C=C[C@H](n2cnc3c(OC(C)C)nc(N)nc32)C1)Oc1ccccc1` [Example 2-2-19, isopropyl ((R)-(((1S,4R)-4-(2-amino-6-isopropoxy-9H-purin-9-yl)cyclopent-2-en-1-yl)methoxy)(phenoxy)phosphoryl)-L-alaninate]: the EC50 (Human mastadenovirus C, 48 h) was 10 to 100 nM. As for `COC(=O)[C@H](C)NP(=O)(OCCSC(=O)C(C)(C)CO)OC[C@@H]1C=C[C@H](n2cnc3c(Cl)nc(N)nc32)C1` (stereo partly drawn) [Example 5-1, methyl ((((1 S,4R)-4-(2-amino-6-chloro-9H-purin-9-yl)cyclopent-2-en-1-yl)methoxy)(2-((3-hydroxy-2,2-dimethylpropanoyl)thio)ethoxy)phosphoryl)-L-alaninate], the EC50 (Human mastadenovirus C) was in the range of 100 to 1000 nM. Take `CC(C)OC(=O)[C@H](C)N[P@@](=O)(OC[C@@H]1C=C[C@H](n2cnc3c(N(C)C)nc(N)nc32)C1)Oc1ccccc1` [Example 2-2-25, isopropyl ((R)-(((1S,4R)-4-(2-amino-6-(dimethylamino)-9H-purin-9-yl)cyclopent-2-en-1-yl)methoxy)(phenoxy)phosphoryl)-L-alaninate]: where the note is “Human mastadenovirus C, 48 h”, the concentration giving a half-maximal response (EC50) fell in the range of 10 to 100 nM.
